Test [1] concerns invasive cells. Particulars: treatment of invasive cells, literature; cited from earlier work.
Test [2] concerns papaine family of cysteine proteases. The following applies: literature; cited from earlier work.
Test [3] concerns multiple proteases in DC2.4 lysates. Description: Competition labeling in DC2.4 lysates with 125I-DCG-04. Type of test: biochemical. The following applies: for potency and selectivity, competition of 125I-DCG-04 labeling of multiple polypeptides: 50 μM library member, DC2.4 lysates, pH 5.5. The method, then: Lysates from the dendritic cell line DC2.4 were prepared at pH 5.5 as described above. Purified cathepsin H was purchased from Calbiochem (San Diego, Calif.). Samples of lysates (100 μg total protein in 100 μL buffer B; 50 mM Tris pH 5.5, 5 mM MgC12, 2 mM DTT) or purified cathepsin H (1 μg protein in 100 μL buffer A) were preincubated with 50 μM of each library member (diluted from 5 mM DMSO stocks) for 2 hrs at room temperature. […] Samples were quenched by the addition of 4×sample buffer to 1×followed by boiling for 5 minutes. Samples were analyzed by SDS-PAGE followed by autoradiography.

The subject of test [4] is papain family cysteine proteases in DC2.4 cells. The experiment in a line: In situ fluorescence labeling of DC2.4 cells. In kind it is cell-based. Particulars: pre-treatment 10 mM for 1 hour. The method, then:
Dendritic cells (DC2.4) were plated on a 24-well dish (10^5 cells/well) embedded with sterile microscope cover slips, in RPMI medium containing 10% FBS. After 16 hours, cells were washed with 1 ml TC-199 medium and incubated with […] of Bodipy-DCG-04 in TC-199 for 12 hours at 37° C. Cells were washed 3 times with 1 ml TC-199 and incubated for 5 hr in probe-free medium. Subsequently, cells were either lysed in buffer A and analyzed on a 12.5% SDS-PAGE using a fluorescent scanner or viewed under a fluorescent microscope.

For test [5], the system named is cysteine proteases in DC2.4 dendritic cell extracts. The experiment in a line: Direct labeling of DC2.4 total cell extracts with probes (affinity blot / autoradiography). In kind it is binding. The method, then: Tissues were dounce-homogenized in buffer A (50 mM Tris pH 5.5, 1 mM DTT, 5 mM MgCl2, 250 mM sucrose) and extracts centrifuged at 1,100×g for 10 min at 4° C. The resulting supernatant was centrifuged at 22,000×g for 30 min at 4° C. and final supernatants used for all labeling experiments. Cells were lysed using glass beads (<104 microns) in buffer A and supernatants centrifuged for 15,000×g for 15 min at 4° C. The total protein concentration of the final supernatants (soluble) was determined by BCA protein quantification (Pierce).
Equivalent amounts of radioactive inhibitor stock solutions (approx. 10^6 cpm per sample) were used for all labeling experiments. Samples of lysates (100 μg total protein in 100 μL buffer; 50 mM Tris pH 5.5, 5 mM MgC12, 2 mM DTT) were labeled for 1 hour at 25° C. unless noted otherwise. Samples were quenched by dilution of 4×SDS sample buffer to 1×(for 1D SDS-PAGE) or by dissolving urea to a final concentration of 9.5 M (for 2D SDS-PAGE).
Quenched DCG-04 labeled samples were separated by SDS/PAGE […] and transferred to nitrocellulose using semi-dry apparatus. Membranes were blocked using phosphate buffered saline (PBS) and 5% (w/v) dry milk for 30 min at 25° C. Blots were washed briefly with PBS/0.2% Tween (PBS-Tween) and treated with avidin-horseradish peroxidase conjugate (VectaStain) in PBS-Tween for 30 min. at 25° C. […]

Test [6] concerns the target T1, cathepsin B (Mus musculus, UniProt P10605).
T1 construct: This method allowed analysis of cathepsin B specificity in crude extracts; endogenous in cells; host or cells: DC2.4 dendritic cell line
The experiment in a line: Competition labeling in DC2.4 lysates with cathepsin B-specific 125I-MB-074. In kind it is biochemical. Particulars: P2 library preincubation. The method, then: Lysates from the dendritic cell line DC2.4 were prepared at pH 5.5 as described above. Purified cathepsin H was purchased from Calbiochem (San Diego, Calif.). Samples of lysates (100 μg total protein in 100 μL buffer B; 50 mM Tris pH 5.5, 5 mM MgC12, 2 mM DTT) or purified cathepsin H (1 μg protein in 100 μL buffer A) were preincubated with 50 μM of each library member (diluted from 5 mM DMSO stocks) for 2 hrs at room temperature. Samples were then labeled by addition of either ^125I-DCG-04 or ^125I-MB-074 to each sample followed by further incubation at room temperature for 1 hour. Samples were quenched by the addition of 4×sample buffer to 1×followed by boiling for 5 minutes. Samples were analyzed by SDS-PAGE followed by autoradiography.

For test [7], the system named is papain family proteases in rat liver. The experiment in a line: Affinity purification and identification of DCG-04 labeled proteases from rat liver. The following applies: single-step affinity purification, LC-MS-TOF CID. Type of test: binding. The method, then: Protein lysates prepared in buffer A (50 mM Acetate buffer, 5 mM DTT, 0.1% Triton X-100) were incubated with […] for 1.5 hours at room temperature. After incubation the protein lysate was passed through a PD10 column pre-equilibrated with buffer B (50 mM Tris-Base 7.4, 150 mM NaCl) and proteins were eluted with the same buffer. SDS was added to eluted proteins to a final concentration of 0.5% and the solution boiled for 10 minutes, diluted 2.5 fold with buffer B (to reduce SDS concentration to 0.2%) and incubated with […] of pre-washed Streptavidin beads for 1 hour at room temperature. Beads were washed 5 times with buffer B, and bound proteins were eluted by boiling for 10 minutes in the presence of […]. For 2D analysis, samples in SDS sample buffer were diluted 1:1 with IEF sample buffer ([…], 5% BME, 2% NP-40, 1.6% pH 5-7 ampholines and 0.4% pH 3.5-10 ampholines) and pure NP-40 was added (25% of volume of sample). Samples were applied to IEF tube gels and electrophoresed at 1000V for 13 hours followed by separation in the second dimension on 15% SDS-PAGE gels. […] The mass range recorded in survey acquisitions was m/z 300-1400. […] All the data were measured using a two point external calibration. […]

In test [8] the test system is cysteine proteases in rat kidney. The experiment in a line: Affinity purification and identification of DCG-04 modified proteins from rat kidney. In kind it is binding. The following applies: monomeric-avidin purification, mass spectrometry. The protocol: A soluble fraction of rat kidney lysate (80 mg total protein) was diluted into anion exchange starting buffer (50 mM Tris, 50 mM NaCl, pH 9.0). The lysate was applied to a […] anion exchange column (Amersham Pharmacia Biotech) and eluted using a linear gradient of 0.05-1M NaCl, pH 9. An aliquot from each fraction (50 μL) was incubated with 50 μM DCG-04 at 25° C. for 1hr and analyzed on a 12.5% SDS/PAGE gel followed by affinity blotting as described above. The fractions containing peak labeling of the 25 kD-30 kD bands were pooled and DCG-04 was added to a final concentration of 50 μM. Pools were incubated at 25° C. for 2 hours and then 12 hours at 4° C. Unbound inhibitor was removed and buffer was exchanged with PBS using a PD-10 column (Pharmacia). Samples were applied to a monomeric-avidin column (1 ml bed volume; Pierce) and the column was washed with 6×1 ml fractions of 1M NaCl. Bound proteins were eluted with 0.5 ml fractions of 2 mM Biotin/100 mM NH4HCO3 buffer. All wash and eluent fractions were analyzed by SDS/PAGE and silver staining. The fractions containing the labeled 25-30 kD bands were pooled, the volume reduced by lyophilization and solid urea added to 9.5 M along with BME to 5%, NP-40 to 2%, pH 5-7 ampholytes to 1.6% and pH 3.5-10 ampholytes to 0.4%. […]

T1 sequence (P10605 80-333 limits assumed): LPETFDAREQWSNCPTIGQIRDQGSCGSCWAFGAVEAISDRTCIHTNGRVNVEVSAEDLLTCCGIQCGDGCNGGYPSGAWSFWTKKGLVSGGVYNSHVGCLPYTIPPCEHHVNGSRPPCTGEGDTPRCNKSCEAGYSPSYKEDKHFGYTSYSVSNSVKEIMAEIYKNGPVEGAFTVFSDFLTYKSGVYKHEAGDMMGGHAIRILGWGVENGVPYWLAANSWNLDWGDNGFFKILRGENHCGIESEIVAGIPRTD

Turning to `CC(C)C[C@H](NC(=O)[C@H]1O[C@@H]1C(=O)O)C(=O)NCCCCN=C(N)N` [E-64], the “effect on cellular invasion” value in test [1] is “block in cellular invasion into a synthetic matrix”. For the same compound, in test [2], the “reactivity toward cysteine proteases” value was “broadly reactive”. Moreover, the “competition of 125I-DCG-04 labeling” value in test [3] (increasing concentrations, preincubation, DC2.4 extracts) was “effectively competed”. For the same compound, in test [4], the “inhibition of in situ protease labeling by green-DCG-04” value is listed as “completely inhibited”.

As to `CC(C)CC(NC(=O)C1OC1C(=O)O)C(=O)NCCc1ccc(O)cc1` (stereo not shown) [JPM-565, reference compound], the “labeling as detected by affinity blotting” value in test [5] (non-radiolabeled compound, DC2.4 extracts) is given as “no labeling”.

With `N[C@@H](CC(=O)O)C(=O)O` [aspartic acid], the “potency and selectivity, competition of 125I-DCG-04 labeling of multiple polypeptides” value (from here on “potency and selectivity, competition”) in test [3] was “relatively poor activity overall, they showed some degree of specificity against polypeptide 2”.

For the compound `NCC(=O)O` [glycine], the “potency and selectivity, competition” value in test [3] is on record as “relatively poor activity overall, they showed some degree of specificity against polypeptide 2”.

Regarding `CC[C@H](C)[C@H](N)C(=O)O` [isoleucine], the “potency and selectivity, competition” value in test [3] is “highest activity and the lowest amount of specificity”. Also, the “activity, competition of 125I-MB-074 labeling of cathepsin B” value (“activity, competition” for short) in test [6] is recorded as “highest activity”.

As for `CCCC[C@H](N)C(=O)O` [norleucine], the “potency and selectivity, competition” value in test [3] is “highest activity and the lowest amount of specificity”. Also, in test [6], the “activity, competition” value is “highest activity”.

`N[C@@H](Cc1ccccc1)C(=O)O` [phenylalanine]: the “potency and selectivity, competition” value in test [3] was “specificity for polypeptides 2, 3, 4, and 5”. Besides, the “activity, competition” value in test [6] is reported as “highest activity followed by the aromatic amino acids”.

As to `N[C@@H](Cc1ccc(O)cc1)C(=O)O` [tyrosine], the “potency and selectivity, competition” value in test [3] is “specificity for polypeptides 2, 3, 4, and 5”. Moreover, the “activity, competition” value in test [6] was “highest activity followed by the aromatic amino acids”.

As for `CC(C)[C@H](N)C(=O)O` [valine containing compound], the “potency and selectivity, competition” value in test [3] was “competed for polypeptides 1, 2 and cathepsin B but had little effect on the remaining species”. The “activity, competition” value in test [6] is “highest activity”.

On to DCG-04, for which the “labeling of major 20-40 kDa species after preheating of samples” value in test [5] (preheated to 100° C. for 1 min before adding compound) is “lost upon heat denaturation”. Also, the “proteases identified via probe” value in test [7] is “cathepsins Z, H, C and J”. For the same compound, in test [8], the “active cysteine proteases identified via probe” value is “cathepsin B, H, and L”. Further, the “potency and selectivity, competition” value in test [3] is “highest activity and the lowest amount of specificity”. For the same compound, the “activity, competition” value in test [6] is recorded as “highest activity”.

(Values after patent publication US20020150961A1, “Activity-dependent cysteine protease profiling reagent” (The Regents of the University of California Office of …, priority 2000, published 2002).)
